Data set [1] concerns the target T1, ASF1A(1–156) (Homo sapiens, UniProt Q9Y294).
T1 construct: Recombinant human ASF1 (ASF1A(1-156)) was purified as already described; (His)6-GST-TEV site (N, cleaved yes); made in house; host or cells: E. coli (pETM30 plasmid)
Kind of data set: Isothermal titration calorimetry (ITC) of peptide binding to ASF1. Conditions: 20°C, 50mM Tris-HCl pH 7.5, protein 10µM, peptide 200µM, at least in duplicate. The procedure:
Binding of the peptides to ASF1 was then assessed by isothermal titration calorimetry (ITC; Figure 3, Table 1). […] Strikingly, the binding potency was similar in all three cases, ΔG=−7.3 to −8.0 kcal M ^−1, despite H3_118–135(St123–127)GCA adopting a more helical conformation and therefore presumably being more pre‐organised towards ASF1 recognition. Analyses of the thermodynamic determinants of binding reveal enthalpy–entropy compensation. […] In contrast, for the more helical peptide, H3_118–135(St123–127)GCA, the entropy of binding (TΔS=3.1 kcal M ^−1) was favourable, consistent with the anticipated effect of pre‐organisation; however, the enthalpy of binding (ΔH=−4.2 kcal M ^−1) was less favourable than for the less helical variants. […] Such an effect might arise because the less helical peptides H3_118–135 and H3_118–135(St120–124) form enthalpically favourable backbone hydrogen bonds upon a change in conformation to the helix, whereas the more pre‐organised helix H3_118–135(St123–127)GCA neither gains new hydrogen bonds nor undergoes an entropically costly change in conformation on binding ASF1. Alternatively, differential changes in the solvation of the peptides upon binding could account for such a difference in thermodynamic signature. Either way, the results underscore a limitation in correlating conformational stability against binding potency for the unconstrained (H3_118–135) and constrained (H3_118–135(St123–127)GCA) peptides; although the helical conformation is preferred for H3_118–135(St123–127)GCA, this can be considered as arising from an increase in energy (or destabilisation) of nonhelical conformations for this sequence as opposed to preorganisation of the wild‐type sequence. […]
(§1) Expression and Purification of ASF-1
(§2) Recombinant human ASF1 (ASF1A(1-156)) was purified as already described from expression in E. coli of a (His)6–GST –Tev site–Asf1 fusion protein using the pETM30 plasmid. Briefly, soluble (His)6-tagged GST fusion protein was purified on reduced glutathione (GSH) agarose beads (Sigma).
(§3) After cleavage with recombinant (His)6-TEV protease at room temperature overnight, the (His)6-GST tag and the protease were trapped in a Ni-NTA agarose column (Qiagen). The flow-through fraction containing ASF1 proteins was further purified by anion exchange chromatography using a Resource Q 6mL column (GE Healthcare). ASF1 was then concentrated using an Amicon device (Millipore) and the buffer was replaced with a 50mM Tris-HCl (pH7.5). Unlabled ASF1 used for ITC experiments was purified from pellets of bacteria grown in LB medium, and uniformly labelled ASF1 from bacteria gown in M9 minimal media supplemented with (15NH4)Cl (Eurisotop,0.5 g.l−1) as the sole nitrogen source.
(§4) (1 picture or pasted object on this page, not shown here)
Isothermal Titration Calorimetry
All IsoThermal Calorimetry (ITC) experiments were performed in a VP-ITC titration calorimeter (Microcal/Malvern) at 20°C, in a 50mM Tris-HCl pH 7.5 buffer. Protein and peptides concentrations were set to values 10µM and 200µM, respectively. Protein and peptide samples were prepared in the same buffer and degassed (ThermoVac, Malvern). After equilibrating the cell at […], the rotating syringe (310rpm) injected at intervals of 280s, 6µL aliquots of peptide solution into the Asf1 previously introduced in the sample cell until saturation was observed. Raw ITC data were processed with the Origin 7.0 Software (OriginLab, Malvern) using the One-Set of Sites fitting model. All ITC experiments were performed at least in duplicate. […]
(§5) Intact peptide content was determined relative to the t=0 time-point based on HPLC peak areas. Curves were fitted using an exponential decay function in Origin Pro 9.

The nature of data set [2]: Circular dichroism (CD), % helicity. In kind it is physicochemical. Conditions: 100 μM peptide in 40 mM sodium phosphate, pH 7.5, 293 K, scans in duplicate. How it is done:
The helical character of all three peptides was investigated by using circular dichroism (CD) in both 40 mM phosphate buffer and trifluoroethanol (TFE). […] (Figure 2).
Circular Dichroism was performed on an Applied Photophysics ChiraScan Apparatus and Software.
For each scan, the following parameters were used: 180-260 nm range; point time 1 s; 1 nm per point; step = 1; bandwidth 4.3 nm; path length 1 mm; temperature 20 °C. Scans were done in duplicate.
Samples were dissolved in 4 0 mM sodium phosphate b uffer pH 7.50 at concentration of 100 μM.
Where θ = circular dichroism at a given wavelength, c = molar concentration, l = path length in cm, R = number of residues in the peptide sequence.
Figure ESI 1. Conformational analyses of histone H3 variant peptides by circular dichroism (CD) analyses (peptide concentration =100 μM, 40 mM sodium phosphate (or 40 mM sodium phosphate/ […]
as §1, §2, §3, §4

Data set [3] has as its system trypsin. As to the kind of experiment: Proteolysis assay with trypsin. In kind it is in vitro ADME. How it is done:
(§6) The proteolytic stability of the peptides was also investigated by using trypsin and proteinase K. The unconstrained H3_118–135 was cleaved within 14 minutes by both proteases (Figure 4, Table 2 and the Supporting Information), whereas the constrained peptides had increased stability depending on the position of the constraint. […]
(§7) The experiment wells contained aqueous buffer (50 mM Tris, pH 8, 100 mM NaCl, 170 µL) to which peptide solution (10 µL, 1 mM in H2O) and enyzme solution (20 µL 0.5 µg/ml trypsine or 20 µL 1 µg/ml proteinase K) was added. Final concentrations in the experiment wells were 50 µM peptide, 0.05 µg/ml trypsine or 0.1 µg/ml proteinase K. A control experiment was started at the same time without the enzymes. 10 µL aliqouts of the reaction were quenched at different time-points using 90 µL 2% TFA solution. Samples were measured using LC-ESI-MS on a Bruker Maxis impact mass spectrometer equipped with a Thermo Ultimate 3000 UPLC. All samples were run on an Acquity BEH C4 column using a gradient of 1-90% B (A: H2O + 0.1 % formic acid, B: ACN + 0.1 % formic acid) over 4 minutes.
as §5

Data set [4] has as its target proteinase K (Parengyodontium album, UniProt P06873). Kind of data set: Proteolysis assay with proteinase K. To be noted: 50 mM Tris, pH 8, 100 mM NaCl, room temperature, LC-ESI-MS. In kind it is in vitro ADME. How it is done:
as §6, §7, §5

Data set [5] deals with proteinase K. Kind of data set: Proteolysis assay with proteinase K. In kind it is in vitro ADME. To be noted: Tritirachium album (Parengyodontium album); fitted half-life; 50 mM Tris, pH 8, 100 mM NaCl, room temperature, 50 M peptide, 0.1 g/ml proteinase K (µ lost in print); LC-ESI-MS, intact peptide relative to t=0, exponential decay fit; read-out: Proteinase K t 1/2. How it is done:
as §6, §7, §5

For data set [6], the target named is T1, ASF1A(1–156). Kind of data set: NMR chemical-shift-perturbation study with 15N labelled ASF1A(1–156). To be noted: uniformly 15N labelled ASF1A(1–156), mapped on PDB 2IIJ. In kind it is binding. The procedure: In order to confirm the binding mode of the constrained peptides with ASF1, chemical‐shift‐perturbation studies were carried out for all three peptides (Figure S2) by using uniformly ^15N labelled ASF1A(1–156). The chemical‐shift variation was mapped onto the protein structure of ASF1A–H3 (PDB ID: 2IIJ). All three peptides induced the highest values of chemical‐shift variation and a “slow‐exchange” regime for the ASF1 residues defining the already well characterised H3 binding site (V45–E51, V90–I97, R108–Y111, V146–T147),37, 45 thus confirming the preservation of the specific binding mode for the constrained peptides.

Data set [7] has as its target T2, ASF1A(1–156) (UniProt Q9Y294 1-156, uniformly 15N labelled (in the chemical-shift-perturbation study only)).
T2 construct: ASF1A (anti-silencing function 1A), histone chaperone, conserved N-terminal domain, residues 1-156; The same construct limits as in PDB 2IIJ; also called anti-silencing function 1
As to the kind of experiment: ITC; H3 peptides with ASF1A(1–156); exothermic, fitted to a 1:1 binding isotherm; conditions not shown. To be noted: both partners purified. (Isothermal titration calorimetry measures the heat released or taken up as one component is titrated into another.)

Where [8] appears, read: trypsin, fitted half-life, 50 mM Tris, pH 8, 100 mM NaCl, room temperature, 50 M peptide, 0.05 g/ml trypsine (µ lost in print), LC-ESI-MS, intact peptide relative to t=0, exponential decay fit, read-out: Trypsin t 1/2.

One may read the Kd as the equilibrium constant for the complex coming apart. In general, stoichiometry N refers to a count of units in the complex or per binding partner.

“And” between values parts separate entries of the source, which are not always exact repeats. Identical values can stand only once. Like-named read-outs stand apart in the source and are kept apart here. Starred links: 1 amine or outer side, 2 acyl side, 3 side chain; linkers in the order of their positions; H or OH if unused. Positions of bridges follow the written chain, without caps; N, C: chain ends. Non-standard residues stand in square brackets, D forms with d. Residues, ends and D or L forms follow the SMILES beside them. Nle(6-ylidene) = O=C([C@H](CCCC=[*:3])N[*:1])[*:2]

T2 sequence (Q9Y294 1-156): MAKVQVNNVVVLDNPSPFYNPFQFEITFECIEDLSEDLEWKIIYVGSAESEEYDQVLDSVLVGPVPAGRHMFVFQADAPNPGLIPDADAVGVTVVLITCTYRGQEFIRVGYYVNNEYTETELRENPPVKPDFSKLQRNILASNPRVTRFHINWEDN
T1 sequence (Q9Y294 1-156): as above
Chain of proteinase K (Parengyodontium album, UniProt P06873) (P06873 106-384, species assumed): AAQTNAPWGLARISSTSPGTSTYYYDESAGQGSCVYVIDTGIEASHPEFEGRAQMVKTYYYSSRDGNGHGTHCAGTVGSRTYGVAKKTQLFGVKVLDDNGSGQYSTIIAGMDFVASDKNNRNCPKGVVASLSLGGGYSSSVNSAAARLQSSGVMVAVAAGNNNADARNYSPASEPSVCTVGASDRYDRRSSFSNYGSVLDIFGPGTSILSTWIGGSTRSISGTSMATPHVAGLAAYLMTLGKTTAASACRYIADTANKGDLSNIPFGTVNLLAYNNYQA

Take Ac-GAMGKDIQLARRIRGERA-NH2 [H3_118–135]: in data set [1], the TΔS is −6.4 to −6.7 kcal M ^−1 and −6.4±0.51 kcal M ^−1; the ΔG was −8.0±0.14 kcal M ^−1; the ΔH was −14.4 to −15.0 kcal M ^−1 and −14.4±0.37 kcal M ^−1. Further, the “% helicity” value in data set [2] worked out at 15%. Moreover, the half-life at 50 µM in data set [3] (isolated enzyme trypsin, pH 8) was 13.3 ± 1.5 min. Also, the “time within which peptide was cleaved by proteinase K” value in data set [4] was at most 14 min. For the same molecule, the half-life at 50 µM in data set [5] was determined as 12.2 ± 0.8 min. Further, in data set [6], the “chemical-shift variation at the B domain binding site (S59–F72) of ASF1 (nonspecific binding)” value (“chemical-shift variation” for short) is listed as “exhibited chemical‐shift variations”.
The molecule `CC[C@H](C)[C@H](NC(=O)[C@H](CCCNC(=N)N)NC(=O)[C@H](CCCNC(=N)N)NC(=O)[C@H](C)NC(=O)[C@H](CC(C)C)NC(=O)[C@H](CCC(N)=O)NC(=O)[C@@H]1CCCC=CCCC[C@H](NC(=O)[C@H](C)NC(=O)CNC(C)=O)C(=O)NCC(=O)N[C@@H](CCCCN)C(=O)N[C@@H](CC(=O)O)C(=O)N1)C(=O)N[C@@H](CCCNC(=N)N)C(=O)NCC(=O)N[C@@H](CCC(=O)O)C(=O)N[C@@H](CCCNC(=N)N)C(=O)N[C@@H](C)C(N)=O` [H3_118–135(St120–124)] (Ac-GA[Nle(6-ylidene)]GKD[Nle(6-ylidene)]QLARRIRGERA-NH2; staple 3-7) showed a ΔG in data set [1] of −8.3±0.07 kcal M ^−1. Besides, the “% helicity” value in data set [2] is 20%. Besides, the figures for the half-life at 50 µM in data set [3] (setting [8]) and in data set [5] were 14.9 ± 2.5 min and 65.8 ± 15.7 min, respectively. Also, the “chemical-shift variation” value in data set [6] is reported as “exhibited chemical‐shift variations”.
As to `CC[C@H](C)[C@H](NC(=O)[C@H](CCCNC(=N)N)NC(=O)[C@H](CCCNC(=N)N)NC(=O)[C@@H]1CCCC=CCCC[C@H](NC(=O)[C@H](CCCCN)NC(=O)CNC(=O)[C@H](CCSC)NC(=O)[C@H](C)NC(=O)CNC(C)=O)C(=O)N[C@@H]([C@@H](C)CC)C(=O)N[C@@H](CCC(N)=O)C(=O)N[C@@H](CC(C)C)C(=O)N1)C(=O)N[C@@H](CCCNC(=N)N)C(=O)NCC(=O)N[C@@H](CCC(=O)O)C(=O)N[C@@H](CCCNC(=N)N)C(=O)N[C@@H](C)C(=O)NCC(=O)N[C@@H](CS)C(=O)N[C@@H](C)C(N)=O` [H3_118–135(St123–127)GCA] (Ac-GAMGK[Nle(6-ylidene)]IQL[Nle(6-ylidene)]RRIRGERAGCA-NH2; staple 6-10), in data set [1], the TΔS is 3.1 kcal M ^−1 and 3.1±0.2 kcal M ^−1; the ΔG is −7.3±0.05 kcal M ^−1; the ΔH is −4.2 kcal M ^−1 and −4.2±0.08 kcal M ^−1. The “% helicity” value in data set [2] stood at 29%. In addition, the half-life at 50 µM in data set [3] (setting [8]) was 40.5 ± 16.9 min. In addition, in data set [5], the half-life at 50 µM came out at 23.1 ± 2.6 min. Further, the “chemical-shift variation” value in data set [6] was “no chemical‐shift variation”.

B1: H3_(118–135) (peptide, UniProt P68431 119-136, looked up)
peptide: TIMPKDIQLARRIRGERA
notes: histone H3, C-terminal helix peptide, residues 118-135; also called histone H3(118–135); unconstrained H3_(118–135); source: synthetic peptide (solid-phase peptide synthesis)
Regarding B1, in data set [7], the Kd was determined as 1340 ± 330 nM, the dH is -14.4 ± 0.37 kcal/M and the “stoichiometry N” value turned out to be 0.94 ± 0.04.

Source of the values: publication PMC6468270, “Recognition of ASF1 by Using Hydrocarbon‐Constrained Peptides” (Chembiochem, 2019).
